From patent publication US5352804A, “Isolation and structure of Halistatin 2” (Arizona Board of Regents, a body corporate, acting on …, priority 1993, dated 1994)
pIC50: −log10 of the molar value. Where two headings read alike, the source gives them in different places.

What was measured:
Assay type in all cases: cell-based
[1] = system: L1210 murine leukemia cells; test: cytotoxicity in L1210 murine leukemia cells
[2] = system: human tumor cell lines; test: cells
[3] = system: NCI-H522; test: NCI human tumor in vitro primary screen
From the text: (§1) Only two hundred years ago, many diseases ravaged humankind. Many of these diseases now have been controlled or eradicated. In the development of the means to treat or control these diseases, work with the appropriate common experimental animals was of critical importance. With the various types of cancers, and with the HIV virus, such work is presently ongoing. The research for the treatment of various types of cancer is coordinated in the United States by the National Cancer Institute (NCI). NCI, as a government entity, has been charged with assisting anti-cancer research. To establish whether a substance has anti cancer activity, NCI has established a variety of protocols, one of which involves testing the candidate substance against a cell line panel containing 60 human tumor cell lines. This protocol has been verified and is generally accepted throughout the scientific community. This protocol and the established statistical means of evaluating the results obtained therefrom have been fully described in the literature. See Principles & Practice of Oncology PPO Updates, Volume 3, Number 10, Oct. 1989, by Michael R. Boyd, M.D., Ph.D., for an indepth description of the test protocol. The statistical analysis is explained in "Display and Analysis of Patterns of Differential Activity of Drugs Against Human Tumor Cell Lines: Development of Means Graph and COMPARE Algorithm" Journal of the National Cancer Institute Reports Vol. 81, No. 14, Pg. 1088, Jul. 14, 1989, by K. D. Paull et al. Both of these references are incorporated herein by this reference thereto.
(§2) Biological Testing; Data Display and Analysis; Screening Data Summary. Freshly isolated halistatin 2 was tested in the NCI's human tumor, disease-oriented in vitro primary screen, and data calculations performed. Table 3 is a composite prepared from mean graphs constructed from the averaged GI50 values from quadruplicate screenings of Halistatin 2.

[4] = system: SNB-78; test: NCI human tumor in vitro primary screen; details: CNS cancer
From the text: as §1, §2

[5] = system: SW-620; test: NCI human tumor in vitro primary screen; details: colon cancer
From the text: as §1, §2

[6] = system: HCT-116; test: NCI human tumor in vitro primary screen; details: colon cancer
From the text: as §1, §2

[7] = system: U251; test: NCI human tumor in vitro primary screen; details: U-251, CNS cancer
From the text: as §1, §2

[8] = system: LXFL 529; test: NCI human tumor in vitro primary screen
From the text: as §1, §2

[9] = system: ACHN; test: NCI human tumor in vitro primary screen; details: renal cancer
From the text: as §1, §2

[10] = system: A549/ATCC; test: NCI human tumor in vitro primary screen; details: non-small cell lung cancer
From the text: as §1, §2

[11] = system: MALME-3M; test: NCI human tumor in vitro primary screen; details: melanoma
From the text: as §1, §2

[12] = system: CAKI-1; test: NCI human tumor in vitro primary screen
From the text: as §1, §2

[13] = system: SR; test: NCI human tumor in vitro primary screen; details: leukemia, read-out: averaged negative log10 GI50 (converted)
From the text: as §1, §2

[14] = system: SK-MEL-28; test: NCI human tumor in vitro primary screen; details: melanoma
From the text: as §1, §2

[15] = system: SF-268; test: NCI human tumor in vitro primary screen; details: CNS cancer
From the text: as §1, §2

[16] = system: M19-MEL; test: NCI human tumor in vitro primary screen; details: melanoma
From the text: as §1, §2

[17] = system: HOP-62; test: NCI human tumor in vitro primary screen; details: non-small cell lung cancer
From the text: as §1, §2

[18] = system: SK-OV-3; test: NCI human tumor in vitro primary screen; details: ovarian cancer
From the text: as §1, §2

[19] = non-small cell lung cancer, read-out: averaged negative log10 GI50 (converted)
[20] = read-out: Log10 GI50 (converted)
[21] = read-out: Log10 TGI (converted)
[22] = read-out: averaged negative log10 GI50 (converted)

For `C=C1CC2CCC34CC5OC6C(O3)C3OC(CCC3OC6(O)C5O4)CC(=O)OC3C(CC4OC(CCC1O2)CC(C)C4=C)OC1CC2OC4(CC2OC1C3C)CC1OC2(CC(C)C3OC5CC(C(O)CO)OC5CC3O2)CC(C)C1O4` (centres unmarked) [halistatin 2], the “cytotoxicity (in words)” value [1] was “significant cytotoxicity”, the pIC50 ([1]; Mus musculus) was 9.40 and the potency [2] was “especially noteworthy”. The screening profile [2] was “characteristic of a general mechanistic class of tubulin-interactive antimitotics”, the GI50 ([2]; Homo sapiens) was about 0.7 nM and the GI50 ([3]; NCl-H522, non-small cell lung cancer, read-out: Log10 GI50 (converted)) was 0.2 nM. For the same compound, the IC (TGI) ([3]; NCl-H522, non-small cell lung cancer, read-out: Log10 TGI (converted)) was 0.55 nM, the GI50 [3, 19] was 0.2 nM and the GI50 [4, 20] was 0.12 nM. It also gave an IC (TGI) [4, 21] of 10 nM, a GI50 [4, 22] of 0.12 nM and a GI50 [5, 20] of 0.398 nM. It also gave an IC (TGI) [5, 21] of 10 nM, a GI50 [5, 22] of 0.398 nM and a GI50 [6, 20] of 0.55 nM. The IC (TGI) [6, 21] was 10 nM, the GI50 [6, 22] was 0.55 nM and the GI50 [7, 20] was 0.479 nM. It also gave an IC (TGI) [7, 21] of 9.33 nM, a GI50 [7, 22] of 0.479 nM and a GI50 ([8]; LXFL529, non-small cell lung cancer, read-out: Log10 GI50 (converted)) of 0.447 nM. For the same compound, the IC (TGI) ([8]; LXFL529, non-small cell lung cancer, read-out: Log10 TGI (converted)) was 10 nM, the GI50 [8, 19] was 0.447 nM and the GI50 [9, 20] was 4.37 nM. For the same compound, the IC (TGI) [9, 21] was 10 nM, the GI50 [9, 22] was 4.37 nM and the GI50 [10, 20] was 1.82 nM. The IC (TGI) [10, 21] was 10 nM, the GI50 [10, 22] was 1.82 nM and the GI50 [11, 20] was 0.229 nM. For the same compound, the IC (TGI) [11, 21] was 10 nM, the GI50 [11, 22] was 0.229 nM and the GI50 ([12]; CAKl-1, renal cancer, read-out: Log10 GI50 (converted)) was 1.29 nM. It also gave an IC (TGI) ([12]; CAKl-1, renal cancer, read-out: Log10 TGI (converted)) of 10 nM, a GI50 ([12]; renal cancer, read-out: averaged negative log10 GI50 (converted)) of 1.29 nM and a GI50 [13] of 0.214 nM. The GI50 [14, 20] was 1 nM, the IC (TGI) [14, 21] was 10 nM and the GI50 [14, 22] was 1 nM. For the same compound, the GI50 [15, 20] was 1.82 nM, the IC (TGI) [15, 21] was 10 nM and the GI50 [15, 22] was 1.82 nM. For the same compound, the GI50 [16, 20] was 0.331 nM, the IC (TGI) [16, 21] was 5.01 nM and the GI50 [17, 20] was 0.692 nM. It also gave an IC (TGI) [17, 21] of 7.59 nM, a GI50 [17, 22] of 0.692 nM and a GI50 [18, 20] of 0.676 nM. For the same compound, the IC (TGI) [18, 21] was 10 nM and the GI50 [18, 22] was 0.676 nM.
